Assay results: US20250368647A1, “NITROGEN CONTAINING CONDENSED 2,3-DIHYDROQUINAZOLINONE COMPOUNDS AS NAV1.8 INHIBITORS” (GLAXOSMITHKLINE INTELLECTUAL PROPERTY DEVELOPMENT LIMITED, priority 2022, published 2025)
Where a name gives a salt, the structure may show the parent alone.

target: human Nav1.8 (Homo sapiens (Human), UniProt Q9Y5Y9); assay: QPatch 48 HTX voltage-clamp electrophysiology, half inactivation state (V1/2) protocol, HEK293-Nav1.8 cells; format: cell-based; conditions: HEK293 cells expressing human Nav1.8, human Navβ1 and human TREK1, P2 current
Sequence (Q9Y5Y9 whole entry): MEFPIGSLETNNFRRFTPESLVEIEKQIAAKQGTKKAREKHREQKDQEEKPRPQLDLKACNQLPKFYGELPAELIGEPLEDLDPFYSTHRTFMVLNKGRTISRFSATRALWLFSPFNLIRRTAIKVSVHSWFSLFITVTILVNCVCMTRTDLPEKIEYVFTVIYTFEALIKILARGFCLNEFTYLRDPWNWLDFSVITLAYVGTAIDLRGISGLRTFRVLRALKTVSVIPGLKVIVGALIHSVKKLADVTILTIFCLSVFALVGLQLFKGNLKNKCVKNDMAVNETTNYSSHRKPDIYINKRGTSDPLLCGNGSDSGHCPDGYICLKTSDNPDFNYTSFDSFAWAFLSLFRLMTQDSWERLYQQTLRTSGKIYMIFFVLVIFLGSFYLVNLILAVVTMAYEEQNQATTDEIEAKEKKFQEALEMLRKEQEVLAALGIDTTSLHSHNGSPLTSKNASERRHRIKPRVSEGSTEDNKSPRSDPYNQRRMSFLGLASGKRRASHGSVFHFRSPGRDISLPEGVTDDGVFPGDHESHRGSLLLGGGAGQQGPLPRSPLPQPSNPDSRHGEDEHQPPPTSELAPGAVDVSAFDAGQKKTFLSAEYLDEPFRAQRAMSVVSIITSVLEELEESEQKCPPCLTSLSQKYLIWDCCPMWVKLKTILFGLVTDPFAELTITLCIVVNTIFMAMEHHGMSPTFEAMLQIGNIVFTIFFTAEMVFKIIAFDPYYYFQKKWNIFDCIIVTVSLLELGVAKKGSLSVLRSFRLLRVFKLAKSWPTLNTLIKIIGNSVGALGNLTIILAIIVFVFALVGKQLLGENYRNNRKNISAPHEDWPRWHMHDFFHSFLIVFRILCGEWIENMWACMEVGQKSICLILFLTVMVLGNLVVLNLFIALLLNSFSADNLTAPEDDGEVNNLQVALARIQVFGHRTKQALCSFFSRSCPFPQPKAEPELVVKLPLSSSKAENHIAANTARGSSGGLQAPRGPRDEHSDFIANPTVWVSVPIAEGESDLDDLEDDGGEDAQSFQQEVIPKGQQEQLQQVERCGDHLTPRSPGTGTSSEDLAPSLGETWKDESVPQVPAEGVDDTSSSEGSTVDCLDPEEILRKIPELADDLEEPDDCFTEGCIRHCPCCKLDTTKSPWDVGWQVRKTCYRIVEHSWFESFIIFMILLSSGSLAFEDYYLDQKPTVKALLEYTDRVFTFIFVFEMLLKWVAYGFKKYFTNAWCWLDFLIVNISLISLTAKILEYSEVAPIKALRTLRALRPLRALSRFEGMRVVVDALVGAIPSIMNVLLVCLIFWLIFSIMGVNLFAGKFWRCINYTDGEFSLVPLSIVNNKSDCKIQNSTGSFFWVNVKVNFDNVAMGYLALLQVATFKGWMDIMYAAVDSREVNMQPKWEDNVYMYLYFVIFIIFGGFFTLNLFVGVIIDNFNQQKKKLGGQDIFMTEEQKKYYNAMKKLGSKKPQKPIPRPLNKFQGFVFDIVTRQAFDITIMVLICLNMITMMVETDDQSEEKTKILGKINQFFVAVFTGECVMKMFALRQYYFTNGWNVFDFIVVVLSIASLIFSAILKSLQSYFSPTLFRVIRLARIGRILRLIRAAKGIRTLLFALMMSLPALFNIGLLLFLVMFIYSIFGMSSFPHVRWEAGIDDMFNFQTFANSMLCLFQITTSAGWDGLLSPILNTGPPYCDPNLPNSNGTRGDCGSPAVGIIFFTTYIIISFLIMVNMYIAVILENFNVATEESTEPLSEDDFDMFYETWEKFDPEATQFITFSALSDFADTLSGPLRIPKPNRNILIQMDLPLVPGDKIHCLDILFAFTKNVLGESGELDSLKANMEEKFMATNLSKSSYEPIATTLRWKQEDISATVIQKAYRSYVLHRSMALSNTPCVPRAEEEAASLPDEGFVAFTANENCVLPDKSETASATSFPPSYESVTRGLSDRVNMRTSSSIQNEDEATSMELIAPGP
Sequence (Q07699 19-218 partner): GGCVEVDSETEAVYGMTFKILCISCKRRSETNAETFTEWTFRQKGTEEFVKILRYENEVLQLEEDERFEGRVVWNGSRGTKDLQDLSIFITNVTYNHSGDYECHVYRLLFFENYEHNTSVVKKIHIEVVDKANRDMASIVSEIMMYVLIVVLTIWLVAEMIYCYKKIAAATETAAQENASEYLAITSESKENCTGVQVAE
Summary of the method: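 HEK293 cells co-expressing Navβ1 and TREK1 were voltage-clamped from −100 mV: a 20 ms step to 0 mV, 8 s inactivation at −46 mV, 20 ms at −100 mV, then a 20 ms P2 test step to 0 mV, repeated every 15 s. P2 current was normalized to vehicle and full block, corrected for run-down, and Hill-fitted (4–6 concentrations) for IC50.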

Nav1.8, pIC50	SMILES
6.7	Cl.O=C1c2cc(F)c(F)cc2N2CN1c1ccc(=O)[nH]c1CCNCc1cc(F)ccc12 [Example 53, 2,3,8-Trifluoro-10,11,12,13-tetrahydro-19H-5,18-methanodibenzo[c,f]pyrido[3,2-j][1,5,9]triazacyclotridecine-15,19(14H)-dione hydrochloride]
6.8	CC1CCc2c(ccc(F)c2F)N2CN(C(=O)c3cc(F)c(C(F)(F)F)cc32)c2ccc(=O)[nH]c2N1 (centres unmarked) [Example 130, 2,8,9-Trifluoro-12-methyl-3-(trifluoromethyl)-10,11,12,13-tetrahydro-19H-5,18-methanodibenzo[f,i]pyrido[2,3-b][1,4,8]triazacyclotridecin-15,19(14H)-dione]
7.8	O=C1c2cc(C(F)(F)F)ccc2N2CN1c1ccc(=O)[nH]c1NCCCc1cc(F)ccc12 [Example 27, 8-Fluoro-2-(trifluoromethyl)-10,11,12,13-tetrahydro-19H-5,18-methanodibenzo[f,i]pyrido[2,3-b][1,4,8]triazocyclotridecine-15,19(14H)-dione]
6	CNc1cc2c(cc1F)C(=O)N1CN2c2ccc(F)cc2CNCCc2[nH]c(=O)ccc21 [Example 54, 2,8-Difluoro-3-(methylamino)-10,11,12,13-tetrahydro-19H-5,18-methano-dibenzo[c,f]pyrido[3,2-j][1,5,9]triazacyclotridecine-15,19(14H)-dione]
7.2	O=C1c2cc(C(F)(F)F)cnc2N2CN1c1ccc(=O)[nH]c1CCCCCc1cc(F)ccc12 [Example 23, 3^4-Fluoro-2^6-(trifluoromethyl)-1^1,1^2,2^1,2^2,2^3,2^4-hexahydro-2(3,1)-pyrido[2,3-d]pyrimidina-1(5,6)-pyridina-3(1,2)-benzenacyclooctaphane-1^2,2^4-dione]
7.1	O=C1c2cc(F)c(C(F)(F)F)cc2N2CN1c1ccc(=O)[nH]c1CNCCc1cc(F)ccc12 [Example 102, 2,8-Difluoro-3-(trifluoromethyl)-10,11,12,13-tetrahydro-19H-5,18-methanodibenzo[b,l]pyrido[3,2-f][1,5,9]triazacyclotridecine-15,19(14H)-dione]
6.2	CN1CCc2cc(F)ccc2N2CN(C(=O)c3cc(F)c(C(F)(F)F)cc32)c2ccc(=O)[nH]c2CC1 [Example 112, 2^6,3^4-Difluoro-6-methyl-2^7-(trifluoromethyl)-1^1,1^2,2^1,2^2,2^3,2^4-hexahydro-6-aza-2(3,1)-quinazolina-1(5,6)-pyridina-3(1,2)-benzenacyclooctaphane-1^2,2^4-dione]
7.5	Cl.N#Cc1cc2c(cc1Cl)C(=O)N1CN2c2ccc(F)c(F)c2CNCCc2[nH]c(=O)ccc21 [Example 72, 2-Chloro-8,9-difluoro-15,19-dioxo-10,11,12,13,14,15-hexahydro-19H-5,18-methanodibenzo-[c,f]pyrido[3,2-j][1,5,9]triazacyclotridecine-3-carbonitrile hydrochloride]
7.7	O=C1c2cc(C(F)(F)F)cnc2N2CN1c1ccc(=O)[nH]c1CC/C=C\Cc1cc(F)ccc12 [Example 24, 3^4-Fluoro-2^6-(trifluoromethyl)-1^1,1^2,2^1,2^2,2^3,2^4-hexahydro-2(3,1)-pyrido[2,3-d]pyrimidina-1(5,6)-pyridina-3(1,2)-benzenacyclooctaphan-5-ene-1^2,2^4-dione]
8.1	O=C1c2cc(F)c(Cl)cc2N2CN1c1ccc(=O)[nH]c1NCCCc1cc(F)ccc12 [Example 93, 3-Chloro-2,8-difluoro-10,11,12,13-tetrahydro-19H-5,18-methanodibenzo[f,i]pyrido[2,3-b]-[1,4,8]triazacyclotridecine-15,19(14H)-dione]
8.4	O=C1c2cc(F)c(C(F)(F)F)cc2N2CN1c1ccc(=O)[nH]c1NCCCc1c2ccc(F)c1F [Example 92, 2,8,9-Trifluoro-3-(trifluoromethyl)-10,11,12,13-tetrahydro-19H-5,18-methano-dibenzo[f,i]pyrido[2,3-b][1,4,8]triazacyclotridecine-15,19(14H)-dione, methanesulfonic acid salt]
7.3	CN1CCCCc2cc(F)ccc2N2CN(C(=O)c3ccc(C(F)(F)F)cc32)c2ccc(=O)[nH]c21 [Example 13, 3^4-Fluoro-8-methyl-2^7-(trifluoromethyl)-1^1,1^2,2^1,2^2,2^3,2^4-hexahydro-8-aza-2(3,1)-quinazolina-1(5,6)-pyridina-3(1,2)-benzenacyclooctaphan-1^2,2^4-dione]
5.5	O=C1c2cc(F)c(F)cc2N2CN1c1ccc(=O)[nH]c1CCNCc1c2ccc(F)c1O.O=CO [Example 84, 2,3,8-Trifluoro-9-hydroxy-10,11,12,13-tetrahydro-19H-5,18-methanodibenzo-[c,f]pyrido[3,2-j][1,5,9]triazacyclotridecine-15,19(14H)-dione, formic acid salt]
7.8	Cl.O=C1c2cc(Cl)c(F)cc2N2CN1c1ccc(=O)[nH]c1NCCCc1c2ccc(F)c1F [Example 101, 2-Chloro-3,8,9-trifluoro-10,11,12,13-tetrahydro-19H-5,18-methanodibenzo[f,i]pyrido[2,3-b]-[1,4,8]triazacyclotridecine-15,19(14H)-dione, hydrochloride]
7.4	C[C@H]1NCCc2[nH]c(=O)ccc2N2CN(c3cc(Cl)c(F)cc3C2=O)c2ccc(F)cc21 [Example 121, (10R)-3-chloro-2,8-difluoro-10-methyl-10,11,12,13-tetrahydro-19H-5,18-methanodibenzo[c,f]pyrido[3,2-j][1,5,9]triazacyclotridecine-15,19(14H)-dione]
6.3	O=C1c2ccc(C(F)(F)F)cc2N2CN1c1ccc(=O)[nH]c1C/C=C\Cc1cc(F)ccc12 [Example 5, 8-Fluoro-3-(trifluoromethyl)-10,13-dihydro-19H-5,18-methanodibenzo[b,l]pyrido[3,2f][1,5]diazacyclo tridecin-15,19(14H)-dione]
8.1	O=C1c2cc(F)c(Cl)cc2N2CN1c1ccc(=O)[nH]c1NCCCc1c2ccc(F)c1F [Example 94, 3-Chloro-2,8,9-trifluoro-10,11,12,13-tetrahydro-19H-5,18-methanodibenzo[f,i]pyrido[2,3-b][1,4,8]triazacyclotridecine-15,19(14H)-dione]
6.0	O=C1c2cc(C(F)(F)F)ccc2N2CN1c1ccc(=O)[nH]c1CCCc1cc(F)ccc12 [Example 2, 14-Fluoro-8-(trifluoromethyl)-17,18-dihydro-1H,6H-5,11-methanodibenzo[b,k]pyridino[3,2-f][1,5]diazacyclododecine-2,6(16H)-dione]
6.0	O=C1c2cc(C(F)(F)F)ncc2N2CN1c1ccc(=O)[nH]c1CCCCc1cc(F)ccc12 [Example 40, 8-Fluoro-2-(trifluoromethyl)-10,11,12,13-tetrahydro-19H-5,18-methanobenzo[l]dipyrido[3,4-b:3′,2′-f][1,5]diazocyclotridecine-15,19(14H)-dione]

same assay, conditions: HEK293 cells expressing human Nav1.8, human Navβ1 and human TREK1, P2 current, read-out: Nav1.8, pIC50 (converted)

IC50	SMILES
631 nM	C[C@@H]1NCCc2[nH]c(=O)ccc2N2CN(c3cc(C(F)(F)F)c(F)cc3C2=O)c2ccc(F)cc21 [Example 119, (10S)-2,8-Difluoro-10-methyl-3-(trifluoromethyl)-10,11,12,13-tetrahydro-19H-5,18-methanodibenzo[c,f]pyrido[3,2-j][1,5,9]triazacyclotridecine-11(10H)-dione]
